In data set [1] the target is S6K1 (Homo sapiens, UniProt P23443). Put plainly: IC50 on recombinant S6K1 (p70S6K). It is filed as biochemical. The following applies: Fig 5B / Appendix Fig S1B, recombinant kinase, unit inferred. On the procedure:
(§1) The result for each kinase is presented as a mean kinase activity of the reaction taken in triplicate relative to a control reaction where the inhibitors were omitted. […] SGK3 was immunoprecipitated from cell lysates and subjected to in vitro kinase assay by measuring phosphorylation of the Crosstide substrate peptide in the presence of 0.1 mM [γ‐^32P]ATP in a 30 min 30°C reaction (upper panel). Kinase reactions are presented as means ± SD for triplicate reaction.
(§2) Appendix Figure S1. […] (A) Chemical struc tures of
(§3) Sano/f_i-14g, -14i and -14n compounds. (B) IC50 values of inhibitors on indicated recombinant k inases. […]

Data set [2] concerns BT-474 xenograft tumours. The data set can be described thus: Immunohistochemical and immunoblot analysis of signalling markers in xenograft tumours. It is filed as in vivo, mice. Conditions: end of treatment, IHC and immunoblot. On the procedure:
(§4) Figure 8 Dual treatment with Akt and SGK inhibitors reduces tumour growth in BT‐474 xenograft model • BT‐474 cells were treated for the indicated times with 0.3 μM MK‐2206. The cell lysates were analysed by immunoblot using the indicated antibodies. • BT‐474c cells were treated with inhibitors as indicated either as monotherapy or in combination and cell confluency measured on the Incucyte ZOOM every 4 h for up to 4 weeks. • BT‐474 cells were injected subcutaneously into athymic Foxn1 ^nu nude mice. […] The tumour volume was measured twice a week. Tumour growth is represented as the fold change mean ± SEM. • All mice were weighed at the end of the treatments. […] Apoptotic cells were counted in 25 fields per condition (left panel) and quantified as clCasp3‐positive cells/field (right panel). […] Six different tumours were analysed from each treatment group and each line represents one tumour sample. […]
(§5) Experiments involving mice were in accordance with Institutional Guidelines of Memorial Sloan Kettering Cancer Center (Protocol number 12‐10‐019). […] When tumours reached a volume of ~150 mm^3, mice were randomised, treated, and tumours were measured twice a week. Tumour volume was determined using the following formula: (length × width^2) ÷ 2. […]
In general terms: In western blotting, separated proteins are transferred to a membrane and probed.

In data set [3] the test system is BT-474c cells. Put plainly: Cell growth in vitro (confluency, Incucyte ZOOM). The format is cell-based, human. The procedure:
(§6) Figure 8 Dual treatment with Akt and SGK inhibitors reduces tumour growth in BT‐474 xenograft model • BT‐474 cells were treated for the indicated times with 0.3 μM MK‐2206. The cell lysates were analysed by immunoblot using the indicated antibodies. • BT‐474c cells were treated with inhibitors as indicated either as monotherapy or in combination and cell confluency measured on the Incucyte ZOOM every 4 h for up to 4 weeks. • BT‐474 cells were injected subcutaneously into athymic Foxn1 ^nu nude mice. […] The tumour volume was measured twice a week. Tumour growth is represented as the fold change mean ± SEM. • All mice were weighed at the end of the treatments. […] Results are presented as a mean ± SD from three different samples. • Tumours were harvested at the end of the experiment, 4 h after the last dosage and subjected to immunohistochemical analysis using cleaved caspase‐3 antibody (clCasp3). Apoptotic cells were counted in 25 fields per condition (left panel) and quantified as clCasp3‐positive cells/field (right panel). The results are presented as mean ± SD number of cleaved caspase‐3 positive cells. Representative images are shown. Scale bar, 100 μm. • Tumours were harvested at the end of the experiment, 4 h after the last dosage and subjected to immunohistochemical analysis with the indicated antibodies. Representative images are shown. Scale bar, 100 μm. • Tumours were obtained the same way as in (G) and subjected to immunoblot analysis with the indicated antibodies. Six different tumours were analysed from each treatment group and each line represents one tumour sample. TEXT PRINTED IN THE PICTURE: (E) MK-2206: plasma conc.
SGK3 (upper panel) and S6K1 (middle panel) were immunoprecipitated and subjected to in vitro kinase assay by measuring phosphorylation of the Crosstide substrate peptide in the presence of 0.1 mM [γ‐^32P]ATP in a 30 min 30°C reaction. Kinase reactions are presented as means ± SD for triplicate reaction. Immunoprecipitates (IP) were also analysed by immunoblot with the indicated antibodies. […]

Data set [4] has as its target PKBa (Homo sapiens, UniProt P31749). Put plainly: IC50 on recombinant PKBa (Akt1). The following applies: Fig 5B / Appendix Fig S1B, recombinant kinase, unit inferred. The format is biochemical. On the procedure:
as §1, §2, §3

The nature of data set [5]: Plasma concentration at end of xenograft study. Conditions: 2–3 h after last dose on day 24, MK-2206 100 mg/kg, 14h 25 mg/kg p.o. It is filed as in vivo, mice. The procedure: as §6
Data set [6] addresses MLK1 (Homo sapiens, UniProt P80192). Put plainly: IC50 on recombinant MLK1. The format is biochemical. Conditions: Fig 5B / Appendix Fig S1B, recombinant kinase, unit inferred. On the procedure: as §1, §2, §3
The test system of data set [7] is BT-474 human breast xenograft. The data set can be described thus: BT-474 xenograft tumour growth in nude mice. The format is in vivo. Conditions: 24 days, monotherapy. On the procedure:
as §4, §5

Data set [8] has as its system S6K1. Put plainly: Immunoprecipitated S6K1 kinase activity (Crosstide) from treated ZR-75-1 cells. The format is cell-based, human. Conditions: 1 μM MK-2206, 1 h. On the procedure:
SGK3 (upper panel) and S6K1 (middle panel) were immunoprecipitated and subjected to in vitro kinase assay by measuring phosphorylation of the Crosstide substrate peptide in the presence of 0.1 mM [γ‐^32P]ATP in a 30 min 30°C reaction. Kinase reactions are presented as means ± SD for triplicate reaction. Immunoprecipitates (IP) were also analysed by immunoblot with the indicated antibodies. The cell lysates were also analysed by immunoblot using the indicated antibodies (lower panel).
Briefly, SGK3, Akt and S6K1 were immunoprecipitated from 1 mg ZR‐75‐1 cell lysate. Immunoprecipitates were washed in sequence with lysis buffer containing high salt concentration (500 mM NaCl), lysis buffer and Buffer A (50 mM Tris pH 7.5, 0.1 mM EGTA). Kinase activity was assessed by measuring [γ‐^32P]ATP incorporation into Crosstide substrate peptide [[…]]. The reactions were carried in 40 μl total volume containing 0.1 mM [γ‐^32P]ATP (400–1,000 cpm/pmol), 10 mM magnesium acetate and 30 μM Crosstide peptide. Reactions were terminated by adding 10 μl 0.1 M EDTA and spotting 40 μl of the resulting reaction mix on P81 paper, which were immediately immersed into 50 mM orthophosphoric acid. Papers were washed at least five times in 50 mM orthophosphoric acid, rinsed in acetone and air‐dried. Radioactivity was quantified by Cerenkov counting. […]

Experimental findings from PMC5007552, “The hVps34‐SGK3 pathway alleviates sustained PI3K/Akt inhibition by stimulating mTORC1 and tumour growth” (The EMBO Journal, 2016) are described below.

Sequence of MLK1 (P80192 whole entry, species assumed): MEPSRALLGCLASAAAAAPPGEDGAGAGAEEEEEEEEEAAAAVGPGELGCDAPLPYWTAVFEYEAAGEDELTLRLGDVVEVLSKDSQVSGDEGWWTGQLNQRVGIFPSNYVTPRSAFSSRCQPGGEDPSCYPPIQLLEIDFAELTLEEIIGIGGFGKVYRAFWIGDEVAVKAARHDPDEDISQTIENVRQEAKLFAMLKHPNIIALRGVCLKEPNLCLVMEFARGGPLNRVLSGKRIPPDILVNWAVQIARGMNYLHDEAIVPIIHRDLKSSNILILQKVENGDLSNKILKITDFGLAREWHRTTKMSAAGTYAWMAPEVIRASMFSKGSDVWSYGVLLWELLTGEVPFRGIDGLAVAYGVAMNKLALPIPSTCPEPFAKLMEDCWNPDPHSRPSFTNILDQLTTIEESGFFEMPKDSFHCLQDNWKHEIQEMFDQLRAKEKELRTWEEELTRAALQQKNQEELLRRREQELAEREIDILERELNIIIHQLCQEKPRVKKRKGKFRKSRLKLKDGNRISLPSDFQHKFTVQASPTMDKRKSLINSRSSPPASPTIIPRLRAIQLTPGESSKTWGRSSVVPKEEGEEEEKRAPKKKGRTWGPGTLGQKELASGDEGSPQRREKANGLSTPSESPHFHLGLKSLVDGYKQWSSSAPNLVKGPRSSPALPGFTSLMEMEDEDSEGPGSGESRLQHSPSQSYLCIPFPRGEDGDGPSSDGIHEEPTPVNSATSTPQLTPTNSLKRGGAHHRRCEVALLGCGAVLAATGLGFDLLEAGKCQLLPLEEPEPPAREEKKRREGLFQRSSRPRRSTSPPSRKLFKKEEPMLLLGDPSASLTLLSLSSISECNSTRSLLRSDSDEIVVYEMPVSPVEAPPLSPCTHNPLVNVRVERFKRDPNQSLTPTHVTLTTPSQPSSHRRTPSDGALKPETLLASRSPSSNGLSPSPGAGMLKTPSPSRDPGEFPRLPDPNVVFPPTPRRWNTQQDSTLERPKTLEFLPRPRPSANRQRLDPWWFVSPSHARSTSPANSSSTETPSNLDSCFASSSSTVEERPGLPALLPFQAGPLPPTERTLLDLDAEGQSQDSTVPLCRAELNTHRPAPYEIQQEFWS
Sequence of S6K1 (Homo sapiens, UniProt P23443) (P23443 whole entry): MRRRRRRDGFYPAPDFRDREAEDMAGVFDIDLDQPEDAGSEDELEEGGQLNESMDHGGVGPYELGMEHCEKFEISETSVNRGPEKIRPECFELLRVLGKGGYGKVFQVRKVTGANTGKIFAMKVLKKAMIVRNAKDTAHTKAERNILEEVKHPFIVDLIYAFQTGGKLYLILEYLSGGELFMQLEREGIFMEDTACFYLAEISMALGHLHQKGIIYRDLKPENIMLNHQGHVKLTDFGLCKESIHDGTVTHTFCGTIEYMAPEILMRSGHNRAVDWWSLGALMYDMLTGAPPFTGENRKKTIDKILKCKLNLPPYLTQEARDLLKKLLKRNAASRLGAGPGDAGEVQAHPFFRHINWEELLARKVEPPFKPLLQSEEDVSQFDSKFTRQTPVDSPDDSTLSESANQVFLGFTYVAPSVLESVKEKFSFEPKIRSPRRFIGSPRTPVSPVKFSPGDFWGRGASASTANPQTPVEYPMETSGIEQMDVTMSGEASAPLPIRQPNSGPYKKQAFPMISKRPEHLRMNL
Sequence of PKBa (P31749 whole entry): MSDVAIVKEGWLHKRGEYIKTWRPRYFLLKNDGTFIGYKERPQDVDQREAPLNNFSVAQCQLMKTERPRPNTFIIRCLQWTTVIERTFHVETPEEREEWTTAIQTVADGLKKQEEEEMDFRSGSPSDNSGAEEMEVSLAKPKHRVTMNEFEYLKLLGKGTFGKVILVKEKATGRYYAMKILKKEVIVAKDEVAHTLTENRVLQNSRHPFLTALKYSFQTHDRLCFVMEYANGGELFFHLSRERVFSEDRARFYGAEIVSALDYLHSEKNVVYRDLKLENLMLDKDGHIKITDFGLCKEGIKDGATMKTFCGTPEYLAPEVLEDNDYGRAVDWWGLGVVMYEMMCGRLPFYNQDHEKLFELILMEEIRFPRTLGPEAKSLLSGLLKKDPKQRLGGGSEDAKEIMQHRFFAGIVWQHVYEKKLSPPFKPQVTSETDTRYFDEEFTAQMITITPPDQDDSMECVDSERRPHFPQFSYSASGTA

As a reminder, the IC50 is the concentration at which inhibition is half-maximal. Regarding `Nc1n[nH]c2nc(-c3ccc(NS(=O)(=O)c4cc(Cl)ccc4Cl)cc3)cnc12` [14h], the IC50 in data set [1] is 76 nM; in data set [4], greater than 10000 nM; in data set [6] it was 215 nM. Besides, the “phosphorylation markers in tumour samples (Akt 473, PRAS40, NDRG1, S6)” value in data set [2] was “no major effect”. Moreover, the “cell growth when 14h is combined with Akt inhibitor” value in data set [3] (3 μM 14h with 0.3 μM AZD5363 or MK-2206, from beginning or 12 days after) is “further reduction in cell growth”. For the same compound, the anti-proliferative effect alone result in data set [3] (3 μM, 5–6 days) was “little anti‐proliferative effect”. In addition, the values for the plasma conc. in data set [5] (dual treatment) and in data set [5] (mono treatment) were 1390 ± 360 nM and 1770 ± 540 nM, respectively. The anti-tumour effect entry in data set [7] (25 mg/kg p.o. 5 times/week) is given as “No anti‐tumour effects”.

On to `NC1(c2ccc(-c3nc4ccn5c(=O)[nH]nc5c4cc3-c3ccccc3)cc2)CCC1` [MK-2206], for which the “phosphorylation markers in tumour samples (Akt 473, PRAS40, NDRG1, S6)” value in data set [2] is “ablated Akt 473 and PRAS40 phosphorylation”. In addition, the “time to reach confluency” value in data set [3] (0.3 μM Akt inhibitor, long-term growth assay) is roughly 20 days. Moreover, the “reduction of S6K1 activity” value in data set [8] was ~ 10 fold. Also, the values for the plasma conc. in data set [5] (dual treatment) and in data set [5] (mono treatment) were 2690 ± 250 nM and 2690 ± 530 nM, respectively. Further, the “inhibition of in vivo growth of BT-474” value in data set [7] (100 mg/kg p.o. 5 times/week) is ~ 20%.
